Measurements taken from ChEMBL document CHEMBL1201862, “PubChem BioAssay data set” (2004).
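Dose response: 5 concentrations. Exposure: 48 h. Format: 96-well plates. Endpoint: linear interpolation; highest concentration if not reached. The concentration for 50% growth inhibition is given as GI50.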 The source made the active and inactive calls. Rule as the data show it: active = GI50 up to about 1.1 µM and inactive = higher.

Experiments:
Assay in all cases: NCI anticancer screen, dose series, 48 h
CAKI-1 = test system: CAKI-1
NCI-H226 = test system: NCI-H226
NCI-H522 = test system: NCI-H522
M14 = test system: M14
U-251 = test system: U-251
ACHN = test system: ACHN
OVCAR-3 = test system: OVCAR-3
RPMI-8226 = test system: RPMI-8226
LOX IMVI = test system: LOX IMVI
Malme-3M = test system: Malme-3M
KM12 = test system: KM12
HCC 2998 = test system: HCC 2998
HCT-116 = test system: HCT-116
IGROV-1 = test system: IGROV-1
UO-31 = test system: UO-31
MCF7 = test system: MCF7
MDA-MB-231 = test system: MDA-MB-231
DU-145 = test system: DU-145
MDA-N = test system: MDA-N
MDA-MB-435 = test system: MDA-MB-435

Measured: GI50

O/N=C(\c1nc2ccc(Cl)cc2nc1O)C(O)c1ccc(Cl)cc1Cl (stereo not drawn)
inactive: CAKI-1 > 100 µM | NCI-H226 > 100 µM | NCI-H522 > 100 µM | M14 > 100 µM | U-251 > 100 µM | ACHN > 100 µM | OVCAR-3 > 100 µM | RPMI-8226 > 100 µM | LOX IMVI > 100 µM | Malme-3M > 100 µM | KM12 > 100 µM | HCC 2998 > 100 µM | HCT-116 > 100 µM | IGROV-1 > 100 µM | UO-31 > 100 µM

Cc1ccc(S(=O)(=O)NC(=O)NC(Cc2ccccc2)C(=O)O)cc1 (stereo not drawn)
inactive: MCF7 > 100 µM | MDA-MB-231 > 100 µM | NCI-H522 > 100 µM | M14 > 100 µM | DU-145 > 100 µM | U-251 > 100 µM | ACHN > 100 µM | RPMI-8226 > 100 µM | LOX IMVI > 100 µM | Malme-3M > 100 µM | KM12 > 100 µM | HCT-116 > 100 µM | IGROV-1 > 100 µM | UO-31 > 100 µM

C/C(CC(=O)Nc1ccc(Cl)c(Cl)c1)=N/NC(=O)C[n+]1ccccc1
inactive: CAKI-1 > 100 µM | NCI-H226 > 100 µM | NCI-H522 68.2 µM | M14 > 100 µM | U-251 > 100 µM | ACHN > 100 µM | OVCAR-3 > 100 µM | RPMI-8226 32.3 µM | LOX IMVI 18.8 µM | Malme-3M > 100 µM | KM12 88.7 µM | HCC 2998 > 100 µM | HCT-116 > 100 µM | IGROV-1 > 100 µM | UO-31 > 100 µM

Cc1ccc(-c2c(C#N)c(-c3ccc(Cl)cc3)c(C#N)c(=O)n2NS(=O)(=O)c2ccc(C)cc2)cc1
inactive: MDA-N 43.8 µM | CAKI-1 34.1 µM | MCF7 15.2 µM | MDA-MB-231 38.5 µM | NCI-H226 39.8 µM | NCI-H522 23.1 µM | M14 19.5 µM | U-251 36.2 µM | ACHN 36.2 µM | LOX IMVI 21.6 µM | Malme-3M 20.8 µM | KM12 22.5 µM | MDA-MB-435 30.6 µM | HCC 2998 19.5 µM | HCT-116 20.5 µM | IGROV-1 29.2 µM

CC(O)CNC(=O)Nc1c(C(F)(F)F)cc(-c2ccccc2)[nH]c1=O (stereo not drawn)
inactive: CAKI-1 > 100 µM | MCF7 > 100 µM | MDA-MB-231 > 100 µM | NCI-H226 > 100 µM | NCI-H522 > 100 µM | M14 > 100 µM | DU-145 > 100 µM | U-251 > 100 µM | ACHN > 100 µM | OVCAR-3 > 100 µM | LOX IMVI > 100 µM | Malme-3M > 100 µM | KM12 > 100 µM | MDA-MB-435 > 100 µM | HCC 2998 > 100 µM | HCT-116 > 100 µM | IGROV-1 > 100 µM | UO-31 > 100 µM

Cc1ccc2c(C3Cc4ccccc4N3C(=O)/C=C\C(=O)O)c(C)[nH]c2c1 (stereo not drawn)
inactive: CAKI-1 46.5 µM | NCI-H226 > 100 µM | NCI-H522 24.7 µM | M14 44.4 µM | U-251 44.6 µM | ACHN > 100 µM | OVCAR-3 19.6 µM | RPMI-8226 24.4 µM | LOX IMVI 30.6 µM | Malme-3M 33.5 µM | KM12 35.2 µM | HCC 2998 73.8 µM | HCT-116 53 µM | IGROV-1 41 µM | UO-31 44.3 µM

COc1ccc2c(c1)CN1C(=N2)CSC1c1ccccc1Cl (stereo not drawn)
inactive: MDA-N 17.1 µM | CAKI-1 29.1 µM | MCF7 25.9 µM | MDA-MB-231 21.8 µM | NCI-H226 12.6 µM | NCI-H522 12.9 µM | M14 18.3 µM | U-251 21.5 µM | ACHN 17.6 µM | RPMI-8226 12.1 µM | LOX IMVI 15 µM | Malme-3M 19.1 µM | KM12 18 µM | MDA-MB-435 18.8 µM | HCC 2998 14.4 µM | HCT-116 17.5 µM | IGROV-1 14.9 µM | UO-31 11.5 µM

C[N+](C)(C)CC(=O)N/N=C(/CC(=O)CC(C1=C(O)c2ccccc2OC1)c1ccccc1)C(=O)Nc1cccc(Cl)c1 (stereo not drawn)
inactive: CAKI-1 > 100 µM | MCF7 > 100 µM | MDA-MB-231 > 100 µM | NCI-H226 > 100 µM | NCI-H522 > 100 µM | M14 > 100 µM | DU-145 > 100 µM | U-251 > 100 µM | ACHN > 100 µM | OVCAR-3 > 100 µM | RPMI-8226 > 100 µM | LOX IMVI > 100 µM | KM12 > 100 µM | HCC 2998 > 100 µM | HCT-116 > 100 µM | IGROV-1 > 100 µM | UO-31 > 100 µM
